Data as given in patent US11510920B2, “Compositions and methods for treating EZH2-mediated cancer” (Icahn School of Medicine at Mount Sinai, priority 2016, dated 2022).

Legend:
Type in all cases: cell-based
MCF-7 cells = assay: Proliferation assay (IncuCyte cell confluence), MCF-7; conditions: Homo sapiens, MCF7, concentration for 50% of maximal inhibition of cell proliferation
Method: (§1) 1-3×10^3 cells were seeded in 96-well plates in duplicates and treated at the indicated compound concentrations. Cells were monitored using the IncuCyte® live cell imaging system (Essen BioScience™, Ann Arbor, Mich.) which was placed in a cell culture incubator operated at 37° C. and 5% CO2. Cell confluence was determined using calculations derived from phase-contrast images. The concentration for 50% of maximal inhibition of cell proliferation (GI50) values were determined by fitting to a standard four-parameter logistic using GraphPad Prism® v5. Graphs depicting the GI50s of select EZH2 degraders/disruptors described here for various cancer cell lines are shown in FIGS. 4-49.

HCC1170 cells = assay: Proliferation assay (IncuCyte cell confluence), HCC1170; conditions: concentration for 50% of maximal inhibition of cell proliferation
Method: as §1

HCC1187 cells = assay: Proliferation assay (IncuCyte cell confluence), HCC1187; conditions: Homo sapiens, concentration for 50% of maximal inhibition of cell proliferation
Method: as §1

MDA-MB-468 cells = assay: Proliferation assay (IncuCyte cell confluence), MDA-MB-468; conditions: Homo sapiens, concentration for 50% of maximal inhibition of cell proliferation
Method: as §1

HCC1954 cells = assay: Proliferation assay (IncuCyte cell confluence), HCC1954; conditions: Homo sapiens, concentration for 50% of maximal inhibition of cell proliferation
Method: as §1

BT549 cells = assay: Proliferation assay (IncuCyte cell confluence), BT549; conditions: Homo sapiens, BT-549, concentration for 50% of maximal inhibition of cell proliferation
Method: as §1

| Compound | GI50 (MCF-7 cells) [µM] | GI50 (HCC1170 cells) [µM] | GI50 (HCC1187 cells) [µM] | GI50 (MDA-MB-468 cells) [µM] | GI50 (HCC1954 cells) [µM] | GI50 (BT549 cells) [µM] |
| --- | --- | --- | --- | --- | --- | --- |
| CCCc1cc(C)[nH]c(=O)c1CNC(=O)c1cc(-c2ccc(N3CCN(CCNC(=O)CC45CC6CC(CC(C6)C4)C5)CC3)nc2)cc2c1cnn2C(C)C [AM16-10A, 6-(6-(4-(2-(2-((3r,5r,7r)-adamantan-1-yl)acetamido)ethyl)piperazin-1-yl)pyridin-3-yl)-1-isopropyl-N-((6-methyl-2-oxo-4-propyl-1,2-dihydropyridin-3-yl)methyl)-1H-indazole-4-carboxamide] | 1.2 | 1.2 | 0.57 | 1.4 | – | – |
| CCCc1cc(C)[nH]c(=O)c1CNC(=O)c1cc(-c2ccc(N3CCN(C(=O)CCC45CC6CC(CC(C6)C4)C5)CC3)nc2)cc2c1cnn2C(C)C [AM16-38A, 6-(6-(4-(3-((3r,5r,7r)-adamantan-1-yl)propanoyl)piperazin-1-yl)pyridin-3-yl)-1-isopropyl-N-((6-methyl-2-oxo-4-propyl-1,2-dihydropyridin-3-yl)methyl)-1H-indazole-4-carboxamide] | – | – | 2 | – | – | – |
| Cc1cc(C)c(CNC(=O)c2cc(-c3ccc(N4CCN(C(=O)CC56CC7CC(CC(C7)C5)C6)CC4)nc3)cc3c2cnn3C(C)C)c(=O)[nH]1 [AM16-92A, 6-(6-(4-(2-((1s,3s)-adamantan-1-yl)acetyl)piperazin-1-yl)pyridin-3-yl)-N-((4,6-dimethyl-2-oxo-1,2-dihydropyridin-3-yl)methyl)-1-isopropyl-1H-indazole-4-carboxamide] | 1 | – | 1.1 | – | – | – |
| Cc1cc(C)c(CNC(=O)c2cc(-c3ccc(N4CCN(C(=O)CCC56CC7CC(CC(C7)C5)C6)CC4)nc3)cc3c2cnn3C(C)C)c(=O)[nH]1 [AM16-93A, 6-(6-(4-(3-((1r,3s)-adamantan-1-yl)propanoyl)piperazin-1-yl)pyridin-3-yl)-N-((4,6-dimethyl-2-oxo-1,2-dihydropyridin-3-yl)methyl)-1-isopropyl-1H-indazole-4-carboxamide] | – | – | 1.5 | – | – | – |
| Cc1cc(C)c(CNC(=O)c2cc(-c3ccc(N4CCN(C(=O)[C@H](C)CCC56CC7CC(CC(C7)C5)C6)CC4)nc3)cc3c2cnn3C(C)C)c(=O)[nH]1 [AM16-97A, 6-(6-(4-((2R)-4-((1r,3S)-adamantan-1-yl)-2-methylbutanoyl)piperazin-1-yl)pyridin-3-yl)-N-((4,6-dimethyl-2-oxo-1,2-dihydropyridin-3-yl)methyl)-1-isopropyl-1H-indazole-4-carboxamide] | – | – | 1.2 | – | – | – |
| Cc1cc(C)c(CNC(=O)c2cc(-c3ccc(N4CCN(CCNC(=O)C56CC7CC(CC(C7)C5)C6)CC4)nc3)cc3c2cnn3C(C)C)c(=O)[nH]1 [AM16-101A, 6-(6-(4-(2-((1s,3s)-adamantane-1-carboxamido)ethyl)piperazin-1-yl)pyridin-3-yl)-N-((4,6-dimethyl-2-oxo-1,2-dihydropyridin-3-yl)methyl)-1-isopropyl-1H-indazole-4-carboxamide] | 0.69 | – | – | 1.1 | – | – |
| Cc1cc(C)c(CNC(=O)c2cc(-c3ccc(N4CCN(CCNCCC56CC7CC(CC(C7)C5)C6)CC4)nc3)cc3c2cnn3C(C)C)c(=O)[nH]1 [AM16-103A, 6-(6-(4-(2-((2-((3r,5r,7r)-adamantan-1-yl)ethyl)amino)ethyl)piperazin-1-yl)pyridin-3-yl)-N-((4,6-dimethyl-2-oxo-1,2-dihydropyridin-3-yl)methyl)-1-isopropyl-1H-indazole-4-carboxamide] | – | – | – | 1.2 | 2.1 | 1.4 |
| Cc1cc(C)c(CNC(=O)c2cc(-c3ccc(N4CCN(CCNC(=O)[C@H](C)CCC56CC7CC(CC(C7)C5)C6)CC4)nc3)cc3c2cnn3C(C)C)c(=O)[nH]1 [AM16-105A, 6-(6-(4-(2-((2R)-4-((1r,3S)-adamantan-1-yl)-2-methyl-butanamido)ethyl)piperazin-1-yl)pyridin-3-yl)-N-((4,6-dimethyl-2-oxo-1,2-dihydropyridin-3-yl)methyl)-1-isopropyl-1H-indazole-4-carboxamide] | 2.3 | – | 1.2 | – | – | – |
| Cc1cc(C)c(CNC(=O)c2cc(-c3ccc(N4CCN(CCCNC(=O)[C@H](C)CCC56CC7CC(CC(C7)C5)C6)CC4)nc3)cc3c2cnn3C(C)C)c(=O)[nH]1 [AM16-106A, 6-(6-(4-(3-((R)-4-((3R,5R,7R)-adamantan-1-yl)-2-methyl-butanamido)propyl)piperazin-1-yl)pyridin-3-yl)-N-((4,6-dimethyl-2-oxo-1,2-dihydro-pyridin-3-yl)methyl)-1-isopropyl-1H-indazole-4-carboxamide] | – | – | 4.3 | – | – | – |
| Cc1cc(C)c(CNC(=O)c2cc(-c3ccc(N4CCN(CCNC(=O)CC56CC7CC(C)(CC(C)(C7)C5)C6)CC4)nc3)cc3c2cnn3C(C)C)c(=O)[nH]1 [AM29-21A, N-((4,6-dimethyl-2-oxo-1,2-dihydropyridin-3-yl)methyl)-6-(6-(4-(2-(2-((1r,3R,5S,7r)-3,5-dimethyladamantan-1-yl)acetamido)ethyl)piperazin-1-yl)pyridin-3-yl)-1-isopropyl-1H-indazole-4-carboxamide] | 0.28 | – | – | 0.2 | – | – |
| Cc1cc(C)c(CNC(=O)c2cc(-c3ccc(N4CCN(CCNC(=O)C56CC7CC(C)(CC(C)(C7)C5)C6)CC4)nc3)cc3c2cnn3C(C)C)c(=O)[nH]1 [AM29-22A, N-((4,6-dimethyl-2-oxo-1,2-dihydropyridin-3-yl)methyl)-6-(6-(4-(2-((1R,3S)-3,5-dimethyladamantane-1-carboxamido)ethyl)piperazin-1-yl)pyridin-3-yl)-1-isopropyl-1H-indazole-4-carboxamide] | 0.69 | – | – | 0.87 | – | – |
| Cc1cc(C)c(CNC(=O)c2cc(-c3ccc(N4CCN(CCC(=O)NCC56CC7CC(CC(C7)C5)C6)CC4)nc3)cc3c2cnn3C(C)C)c(=O)[nH]1 [AM29-33A, 6-(6-(4-(3-((((3r,5r,7r)-adamantan-1-yl)methyl)amino)-3-oxopropyl)piperazin-1-yl)pyridin-3-yl)-N-((4,6-dimethyl-2-oxo-1,2-dihydropyridin-3-yl)methyl)-1-isopropyl-1H-indazole-4-carboxamide] | 0.7 | – | – | 0.71 | – | – |
| Cc1cc(C)c(CNC(=O)c2cc(-c3ccc(N4CCN(CCNC(=O)CC5C6CC7CC(C6)CC5C7)CC4)nc3)cc3c2cnn3C(C)C)c(=O)[nH]1 (centres unmarked) [AM29-182A, 6-(6-(4-(2-(2-((1r,3r,5r,7r)-adamantan-2-yl)acetamido)ethyl)piperazin-1-yl)pyridin-3-yl)-N-((4,6-dimethyl-2-oxo-1,2-dihydropyridin-3-yl)methyl)-1-isopropyl-1H-indazole-4-carboxamide] | – | – | – | 1.8 | 3.9 | 2.5 |
| Cc1cc(C)c(CNC(=O)c2cc(-c3ccc(N4CCN(CCNC(=O)CC56CC7CC(CC(C7)C5)C6)CC4)nc3)cc3c2cnn3C(C)C)c(=O)[nH]1 [XY019-43, 6-(6-(4-(2-(2-((3r,5r,7r)-adamantan-1-yl)acetamido)ethyl)piperazin-1-yl)pyridin-3-yl)-N-((4,6-dimethyl-2-oxo-1,2-dihydropyridin-3-yl)methyl)-1-isopropyl-1H-indazole-4-carboxamide] | 0.35 | – | 0.65 | 0.54 | 2.7 | 2.2 |
| Cc1cc(C)c(CNC(=O)c2cc(-c3ccc(N4CCN(CCNC(=O)CCC56CC7CC(CC(C7)C5)C6)CC4)nc3)cc3c2cnn3C(C)C)c(=O)[nH]1 [XY019-44, 6-(6-(4-(2-(3-((3r,5r,7r)-adamantan-1-yl)propanamido)ethyl)piperazin-1-yl)pyridin-3-yl)-N-((4,6-dimethyl-2-oxo-1,2-dihydropyridin-3-yl)methyl)-1-isopropyl-1H-indazole-4-carboxamide] | – | – | 2.2 | – | – | – |
